Like-named read-outs stand apart in the source and are kept apart here.
Tests used:
[1] = molecular target: T1, AuroraB (Homo sapiens, UniProt Q96GD4); test: AuroraB Homogeneous Time Resolved Fluorescent (HTRF) kinase assay; assay type: biochemical; conditions: average, read-out: AurB_ _IC50_IP (Avg)
T1 construct: 20 µL of AuroraB FL His; His
How it was run: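 Full-length His-tagged AuroraB (400 pM) phosphorylates 0.1 µM biotinylated Histone H3 with 23 µM ATP (Km(app)) in HEPES pH 7.5 with Mg/Mn, about 90 min. EDTA-quenched; Eu-anti-phosphoHistoneH3 and SA-APC HTRF, 655/615 nm ratio as phosphorylation.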

[2] = molecular target: T2, AuroraA-TPX2 (Homo sapiens, UniProt O14965); test: AuroraA-TPX2 Homogeneous Time Resolved Fluorescent (HTRF) kinase assay; assay type: biochemical; conditions: average, read-out: AurA/TP X2_ IC50_IP (Avg)
T2 construct: 20 µL of AuroraA-TPX2 KD GST; GST
T2 sequence (O14965 133-383 limits assumed): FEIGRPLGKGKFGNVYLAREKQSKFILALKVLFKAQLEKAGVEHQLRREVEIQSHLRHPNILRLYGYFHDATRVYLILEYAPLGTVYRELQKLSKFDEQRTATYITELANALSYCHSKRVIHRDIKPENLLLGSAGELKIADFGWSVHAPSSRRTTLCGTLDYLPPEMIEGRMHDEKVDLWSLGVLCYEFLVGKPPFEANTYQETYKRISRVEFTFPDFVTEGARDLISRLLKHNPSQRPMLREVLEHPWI
T2 sequence (Q9ULW0 1-43 partner limits assumed): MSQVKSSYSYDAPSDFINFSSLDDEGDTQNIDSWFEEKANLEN
How it was run: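 Aurora-A/TPX2 phosphorylates biotinylated PLK peptide (about 1 µM) with ATP for about 120 min in 60 mM HEPES pH 7.5, 10 mM MgCl2, 2 mM DTT. EDTA quench, overnight equilibration with Eu-anti-phosphoPLK antibody and SA-APC; HTRF read at 615/655 nm after 320 nm excitation.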

[3] = system: phosphorylation of Histone H3; test: HeLa cell 1-hour phospho-histone assay; assay type: cell-based; conditions: Homo sapiens, HeLa, 1 h, HeLa cells, 1 hour, average, read-out: pHH3 EC50_IP (Avg)
Protocol: HeLa cell 1-hour phospho-histone assay
The purpose of this assay is to test the inhibitory effect of Aurora compounds with respect to phosphorylation of Histone H3 in the cellular context. HeLa cells (9x10^4/well) are plated in black 96-well flat-bottom tissue culture plates and incubated for 40 hours prior to compound addition. Compounds are serially diluted in DMSO, followed by dilution into MEM containing […] HEPES; 10ul/well of diluted compounds are added to cells (0.5% DMSO final). Cells are incubated for 1 hour at 37 °C in 5% CO2. Cells are then fixed with 3.7% formaldehyde for 10 minutes, washed with wash buffer (1% goat serum and 0.1% Tween 20 in PBS), then permeabilized with 0.5% Triton X in PBS for 15 minutes. After washing with wash buffer, cells are incubated with primary antibody (Upstate #06-507 anti-phospho-histone (Ser 10) antibody (pHH3) for 1 hour at 10ug/ml. After 2 washes with wash buffer, cells are incubated with secondary antibody (Molecular Probes #A11034 goat anti-rabbit Alexa-488 for 1 hour at 1ug/ml + Hoechst 33342 nuclear dye at 1ug/ml (Molecular Probes). Cells are washed 2 times with wash buffer, and buffer replaced with PBS. Plates are scanned on the Cellomics Array Scan (6 fields, ~2000 cells/well) and % of cells that are pHH3 positive were calculated using the Cellomics algorithm.

[4] = given as numbers, unit inferred

T1 sequence (Q96GD4 whole entry): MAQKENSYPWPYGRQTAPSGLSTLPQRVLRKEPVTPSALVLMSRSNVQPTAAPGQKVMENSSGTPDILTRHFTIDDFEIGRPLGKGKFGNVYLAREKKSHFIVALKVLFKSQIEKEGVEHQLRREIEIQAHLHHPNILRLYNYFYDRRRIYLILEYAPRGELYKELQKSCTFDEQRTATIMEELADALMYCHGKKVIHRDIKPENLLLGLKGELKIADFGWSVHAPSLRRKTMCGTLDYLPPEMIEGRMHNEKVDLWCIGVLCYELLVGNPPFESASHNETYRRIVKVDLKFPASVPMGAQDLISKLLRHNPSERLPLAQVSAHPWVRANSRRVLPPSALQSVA

IC50 ([1]; given as class symbols) [nM] | IC50 ([2]; given as class symbols) [nM] | EC50 ([3]; given as class symbols) [nM] | IC50 [1, 4] [nM] | IC50 [2, 4] [nM] | EC50 [3, 4] [nM] | SMILES
≤ 100 | 500 to 2500 | 500 to 2500 | – | – | – | Nc1nccc(-c2cccnc2Oc2ccc(Nc3nnc(-c4ccccc4)cc3-c3ccccc3)cc2)n1 [compound 246, N-(4-((3-(2-amino-4-pyrimidinyl)-2-pyridinyl)oxy)phenyl)-4,6-diphenyl-3-pyridazinamine]
– | – | – | 4.2 | 19.8 | 335 | Nc1nccc(-c2cccnc2Oc2ccc(Nc3nnc(-c4ccc(CCO)cc4)c4ccccc34)cc2)n1 [compound 247, 2-(4-(4-((4-((3-(2-amino-4-pyrimidinyl)-2-pyridinyl)oxy)phenyl)amino)-1-phthalazinyl)phenyl)ethanol]
– | – | – | 11 | 149 | 465 | CNc1nccc(-c2cccnc2Oc2ccc(Nc3nnc(-c4ccccc4)c4ccccc34)nc2)n1 [compound 248, N-(5-((3-(2-(methylamino)-4-pyrimidinyl)-2-pyridinyl)oxy)-2-pyridinyl)-4-phenyl-1-phthalazinamine]
≤ 100 | ≤ 100 | 100 to 500 | – | – | – | Nc1nccc(-c2cccnc2Oc2ccc(Nc3nnc(-c4ccc(CO)cc4)c4ccccc34)cc2)n1 [compound 249, (4-(4-((4-((3-(2-amino-4-pyrimidinyl)-2-pyridinyl)oxy)phenyl)amino)-1-phthalazinyl)phenyl)methanol]
– | – | – | 19.9 | 30.3 | 175 | Nc1nccc(-c2cccnc2Oc2ccc(Nc3nnc(-c4ccccc4)c4ccoc34)cc2)n1 [compound 250, N-(4-((3-(2-amino-4-pyrimidinyl)-2-pyridinyl)oxy)phenyl)-4-phenylfuro[2,3-d]pyridazin-7-amine]
– | – | – | 2.8 | 5.9 | 41.7 | Cc1csc(-c2nnc(Nc3ccc(Oc4ncccc4-c4ccnc(N)n4)cc3)c(C)c2C)c1 [compound 259, N-(4-((3-(2-amino-4-pyrimidinyl)-2-pyridinyl)oxy)phenyl)-4,5-dimethyl-6-(4-methyl-2-thienyl)-3-pyridazinamine]
– | – | – | 14.8 | 33 | 228 | Nc1nccc(-c2cccnc2Oc2ccc(Nc3ncc(-c4ccccc4)c4ccccc34)cc2)n1 [compound 260, N-(4-((3-(2-amino-4-pyrimidinyl)-2-pyridinyl)oxy)phenyl)-4-phenyl-1-isoquinolinamine]
100 to 500 | 100 to 500 | 500 to 2500 | – | – | – | c1ccc(-c2nnc(Nc3ccc(Oc4nccnc4-c4ccncc4)cc3)c3ccccc23)cc1 [compound 261, 4-phenyl-N-(4-((3-(4-pyridinyl)-2-pyrazinyl)oxy)phenyl)-1-phthalazinamine]
– | – | – | 15.8 | 34.8 | 334 | Cc1csc(-c2cnc(Nc3ccc(Oc4ncccc4-c4ccnc(N)n4)cc3)c3ccccc23)c1 [compound 262, N-(4-((3-(2-amino-4-pyrimidinyl)-2-pyridinyl)oxy)phenyl)-4-(4-methyl-2-thienyl)-1-isoquinolinamine]
500 to 2500 | 500 to 2500 | 500 to 2500 | – | – | – | Nc1nccc(-c2cccnc2Oc2ccc(Nc3nnc(-c4ccccc4)cc3O)cc2)n1 [compound 263, 3-((4-((3-(2-amino-4-pyrimidinyl)-2-pyridinyl)oxy)phenyl)amino)-6-phenyl-4-pyridazinol]
≤ 100 | ≤ 100 | ≤ 100 | – | – | – | Nc1nccc(-c2cccnc2Oc2ccc(Nc3nnc(C4CCCCC4)c4ccccc34)cn2)n1 [compound 274, N-(6-((3-(2-amino-4-pyrimidinyl)-2-pyridinyl)oxy)-3-pyridinyl)-4-cyclohexyl-1-phthalazinamine]
– | – | – | 7.4 | 29.9 | 282 | Nc1nccc(-c2cccnc2Oc2ccc(Nc3nnc(N4CCCC(F)C4)c4ccccc34)cc2)n1 (centres unmarked) [compound 278, N-(4-((3-(2-amino-4-pyrimidinyl)-2-pyridinyl)oxy)phenyl)-4-(3-fluoro-1-piperidinyl)-1-phthalazinamine]
≤ 100 | 100 to 500 | 100 to 500 | – | – | – | CN1CCN(CCCNc2cc(-c3cccnc3Oc3ccc(Nc4nnc(-c5ccccc5)c5ccccc45)cc3)ccn2)CC1 [compound 279, N-(3-(4-methyl-1-piperazinyl)propyl)-2-((4-((4-phenyl-1-phthalazinyl)amino)phenyl)oxy)-3,4'-bipyridin-2'-amine]
≤ 100 | ≤ 100 | 100 to 500 | – | – | – | Cc1cc(-c2ccccc2)nnc1Nc1ccc(Oc2ncccc2-c2ccnc(NCCCN3CCN(C)CC3)n2)nc1 [compound 280, 4-methyl-N-(6-((3-(2-((3-(4-methyl-1-piperazinyl)propyl)amino)-4-pyrimidinyl)-2-pyridinyl)oxy)-3-pyridinyl)-6-phenyl-3-pyridazinamine]
– | – | – | 6.1 | 20.4 | 170 | O=C1Cc2c(-c3cccnc3Oc3ccc(Nc4nnc(-c5ccccc5)c5ccccc45)cc3)ccnc2N1 [compound 281, 4-(2-((4-((4-phenyl-1-phthalazinyl)amino)phenyl)oxy)-3-pyridinyl)-1,3-dihydro-2H-pyrrolo[2,3-b]pyridin-2-one]
≤ 100 | ≤ 100 | 100 to 500 | – | – | – | Cc1cc(-c2ccccc2)nnc1Nc1ccc(Oc2ncccc2-c2ccnc3c2CC(=O)N3)cc1 [compound 282, 4-(2-((4-((4-methyl-6-phenyl-3-pyridazinyl)amino)phenyl)oxy)-3-pyridinyl)-1,3-dihydro-2H-pyrrolo[2,3-b]pyridin-2-one]
≤ 100 | 100 to 500 | 500 to 2500 | – | – | – | CN(C)Cc1cccc(-c2nnc(Nc3ccc(Oc4ncccc4-c4ccnc(N)n4)cc3)c3ccccc23)c1 [compound 299, N-(4-((3-(2-amino-4-pyrimidinyl)-2-pyridinyl)oxy)phenyl)-4-(3-((dimethylamino)methyl)phenyl)-1-phthalazinamine]
100 to 500 | 100 to 500 | 100 to 500 | – | – | – | Cc1n[nH]cc1-c1cccnc1Oc1ccc(Nc2nnc(-c3ccccc3)c3ccccc23)cc1 [compound 300, N-(4-((3-(3-methyl-1H-pyrazol-4-yl)-2-pyridinyl)oxy)phenyl)-4-phenyl-1-phthalazinamine]
– | – | – | 3.1 | 5.5 | 166 | Cc1ccc(-c2nnc(Nc3ccc(Oc4ncccc4-c4c[nH]nc4N)cc3)c3ccccc23)cc1 [compound 301, N-(4-((3-(3-amino-1H-pyrazol-4-yl)-2-pyridinyl)oxy)phenyl)-4-(4-methylphenyl)-1-phthalazinamine]
≤ 100 | ≤ 100 | 500 to 2500 | – | – | – | Cc1cc(-c2ccccc2)nnc1Nc1ccc(Oc2ncccc2-c2c[nH]nc2N)cc1 [compound 302, N-(4-((3-(3-amino-1H-pyrazol-4-yl)-2-pyridinyl)oxy)phenyl)-4-methyl-6-phenyl-3-pyridazinamine]
– | – | – | 16.6 | 3.2 | 729 | Nc1n[nH]cc1-c1cccnc1Oc1ccc(Nc2nnc(Cc3ccccc3)c3ccccc23)cc1 [compound 303, N-(4-((3-(3-amino-1H-pyrazol-4-yl)-2-pyridinyl)oxy)phenyl)-4-(phenylmethyl)-1-phthalazinamine]
– | – | – | 68.7 | 16.4 | 788 | Nc1n[nH]cc1-c1cccnc1Oc1ccc(Nc2nnc(-c3ccccc3)c3ccsc23)cc1 [compound 304, N-(4-((3-(3-amino-1H-pyrazol-4-yl)-2-pyridinyl)oxy)phenyl)-4-phenylthieno[2,3-d]pyridazin-7-amine]
≤ 100 | – | ≤ 100 | – | – | – | Cc1csc(-c2nnc(Nc3ccc(Oc4ncccc4-c4ccnc(N)n4)cc3)c3ccccc23)c1 [compound 331, N-(4-((3-(2-amino-4-pyrimidinyl)-2-pyridinyl)oxy)phenyl)-4-(4-methyl-2-thienyl)-1-phthalazinamine]
